SMILES strings stand for the structures. Where a name gives a salt, the structure may show the parent alone.

hNav1.7, sequence (Q15858 other isoform, or with tags, fused parts or gaps): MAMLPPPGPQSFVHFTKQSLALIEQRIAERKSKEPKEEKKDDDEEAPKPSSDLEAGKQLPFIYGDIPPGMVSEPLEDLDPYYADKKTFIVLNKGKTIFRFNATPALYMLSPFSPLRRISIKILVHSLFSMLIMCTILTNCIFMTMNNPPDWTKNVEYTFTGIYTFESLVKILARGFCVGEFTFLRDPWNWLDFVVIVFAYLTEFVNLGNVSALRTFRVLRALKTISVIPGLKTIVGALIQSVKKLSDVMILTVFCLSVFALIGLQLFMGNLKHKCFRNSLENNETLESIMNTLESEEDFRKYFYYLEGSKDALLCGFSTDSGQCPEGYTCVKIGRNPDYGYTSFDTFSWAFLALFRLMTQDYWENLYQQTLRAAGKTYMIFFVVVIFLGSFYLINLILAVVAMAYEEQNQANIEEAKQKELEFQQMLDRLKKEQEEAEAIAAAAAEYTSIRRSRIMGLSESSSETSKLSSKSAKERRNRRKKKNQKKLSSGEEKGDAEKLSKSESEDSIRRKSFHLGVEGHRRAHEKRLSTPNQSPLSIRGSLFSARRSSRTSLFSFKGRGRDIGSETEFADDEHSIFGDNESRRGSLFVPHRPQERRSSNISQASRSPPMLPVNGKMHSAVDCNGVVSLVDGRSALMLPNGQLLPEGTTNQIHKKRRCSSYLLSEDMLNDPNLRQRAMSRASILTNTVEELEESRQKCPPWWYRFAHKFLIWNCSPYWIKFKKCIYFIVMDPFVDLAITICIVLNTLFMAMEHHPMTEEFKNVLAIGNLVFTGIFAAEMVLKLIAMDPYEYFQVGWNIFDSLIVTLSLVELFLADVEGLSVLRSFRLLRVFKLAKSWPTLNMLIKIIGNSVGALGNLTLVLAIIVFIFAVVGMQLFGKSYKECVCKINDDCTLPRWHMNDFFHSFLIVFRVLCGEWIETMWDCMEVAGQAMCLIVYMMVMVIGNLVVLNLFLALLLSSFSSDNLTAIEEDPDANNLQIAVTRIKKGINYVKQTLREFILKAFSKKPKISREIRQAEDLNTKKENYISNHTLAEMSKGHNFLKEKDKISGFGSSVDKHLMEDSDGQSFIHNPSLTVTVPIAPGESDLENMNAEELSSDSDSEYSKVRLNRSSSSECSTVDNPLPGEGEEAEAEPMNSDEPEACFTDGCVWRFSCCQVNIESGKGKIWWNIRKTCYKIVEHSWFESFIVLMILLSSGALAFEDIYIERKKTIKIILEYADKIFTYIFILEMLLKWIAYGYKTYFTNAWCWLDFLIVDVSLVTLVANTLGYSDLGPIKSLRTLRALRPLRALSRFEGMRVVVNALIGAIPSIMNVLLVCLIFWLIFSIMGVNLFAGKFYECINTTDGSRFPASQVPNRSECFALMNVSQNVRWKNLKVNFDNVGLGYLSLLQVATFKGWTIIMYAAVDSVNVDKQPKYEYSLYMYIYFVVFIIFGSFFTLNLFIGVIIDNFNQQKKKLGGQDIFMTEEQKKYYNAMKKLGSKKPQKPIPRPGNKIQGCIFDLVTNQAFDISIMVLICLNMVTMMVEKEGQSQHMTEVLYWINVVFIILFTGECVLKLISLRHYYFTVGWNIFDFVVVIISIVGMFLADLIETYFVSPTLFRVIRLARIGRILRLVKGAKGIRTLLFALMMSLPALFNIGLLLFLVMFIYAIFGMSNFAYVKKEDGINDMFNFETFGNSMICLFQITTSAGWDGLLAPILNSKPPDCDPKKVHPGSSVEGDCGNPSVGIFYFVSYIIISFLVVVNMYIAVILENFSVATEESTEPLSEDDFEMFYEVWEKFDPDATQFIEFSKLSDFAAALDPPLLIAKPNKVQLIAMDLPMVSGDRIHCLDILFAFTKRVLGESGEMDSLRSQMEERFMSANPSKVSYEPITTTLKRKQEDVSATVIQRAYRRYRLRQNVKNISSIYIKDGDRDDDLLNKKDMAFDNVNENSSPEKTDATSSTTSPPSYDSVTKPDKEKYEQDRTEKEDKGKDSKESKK
hNav1.7, sequence (Q07699 19-218 partner): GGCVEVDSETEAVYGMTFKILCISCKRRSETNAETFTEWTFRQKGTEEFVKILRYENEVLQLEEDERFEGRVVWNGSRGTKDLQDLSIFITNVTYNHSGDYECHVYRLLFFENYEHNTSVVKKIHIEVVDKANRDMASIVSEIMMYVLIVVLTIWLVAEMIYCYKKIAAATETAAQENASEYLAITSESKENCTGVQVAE

One experiment addresses hNav1.7 (Homo sapiens (Human), UniProt Q15858). In words: Tritiated sulfonamide competitive binding to membranes from cells expressing hNav1.7 and the β1 subunit.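 Note: Filter-bound radioactivity counted by liquid scintillation, nonspecific binding defined with excess unlabelled ligand, IC50 fitted to percent inhibition of specific binding.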
Conditions: not given
Consider `O=C(NS(=O)(=O)C1CC1)c1cc(C2CC2)c(CN2CCC(Sc3cc(Cl)cc(Cl)c3)CC2)cc1F` [Example 531, 5-cyclopropyl-N-(cyclopropylsulfonyl)-4-((4-((3,5-dichlorophenyl)thio)piperidin-1-yl)methyl)-2-fluorobenzamide, trifluoroacetic acid salt], for which the IC50 came to 2.2 nM.
`CC1(C)CN(Cc2cc(F)c(C(=O)NS(=O)(=O)C3CC3)cc2C2CC2)CCC1Oc1cc(C(F)(F)F)c(Cl)cn1` (stereo not drawn) [Example 562, 4-((4-((5-chloro-4-(trifluoromethyl)pyridin-2-yl)oxy)-3,3-dimethylpiperidin-1-yl)methyl)-5-cyclopropyl-N-(cyclopropylsulfonyl)-2-fluorobenzamide, trifluoroacetic acid salt] registered an IC50 of 3.1 nM.
The compound `O=C(NS(=O)(=O)N1CCC1)c1cc(C2CC2)c(O[C@@H]2CCCN(Cc3ccc(F)cc3C(F)(F)F)C2)cc1F` [Example 36, (R)—N-(azetidin-1-ylsulfonyl)-5-cyclopropyl-2-fluoro-4-((1-(4-fluoro-2-(trifluoromethyl)benzyl)piperidin-3-yl)oxy)benzamide] yielded an IC50 of 3.6 nM.
On the same count and under the same terms, as for `CS(=O)(=O)NC(=O)c1cc(C2CC2)c(OCC2CCN(Cc3ccc(F)c(C#N)c3)CC2)cc1F` [Example 591, 4-((1-(3-cyano-4-fluorobenzyl)piperidin-4-yl)methoxy)-5-cyclopropyl-2-fluoro-N-(methylsulfonyl)benzamide], the figure is 240 nM.
With `O=C(NS(=O)(=O)N1CCC1)c1cc(C2CC2)c(O[C@@H]2CCCN(Cc3ccc(F)cc3)C2)cc1F` [Example 22], the IC50 was 18.2 nM.
In turn, `CC(c1cc(Cl)cc(Cl)c1)N1CCN(Cc2cc(F)c(C(=O)NS(=O)(=O)C3CC3)cc2C2CC2)CC1` (stereo not drawn) [Example 541, 5-cyclopropyl-N-(cyclopropylsulfonyl)-4-((4-(1-(3,5-dichlorophenyl)ethyl)piperazin-1-yl)methyl)-2-fluorobenzamide] displayed an IC50 of 5.9 nM.

The same experiment, now with this note: read-out: Ligand Binding Assay; 100 pM [3H]compound, membranes with hNav1.7 and β1 subunit, 18 h, room temperature.
As to `C[C@@H]1CC[C@@H](Oc2cc(F)c(C(=O)NS(C)(=O)=O)cc2C2CC2)CN1Cc1ccc(F)cc1Cl` [Example 52], the IC50 is less than 1.6 nM.
On the same count and under the same terms, as for `CS(=O)(=O)NC(=O)c1cc(C2CC2)c(OCC2CCN(CC3(C(F)(F)F)CCCC3)CC2)cc1F` [Example 329, 5-cyclopropyl-2-fluoro-N-(methylsulfonyl)-4-((1-((1-(trifluoromethyl)cyclopentyl)methyl)piperidin-4-yl)methoxy)benzamide trifluoroacetic acid salt], the figure is 3.3 nM; as for `CS(=O)(=O)NC(=O)c1cc(C2CC2)c(OCC2CCN(S(=O)(=O)c3ccc(C(F)(F)F)cc3Cl)CC2)cc1F` [Example 384, 4-((1-((2-chloro-4-(trifluoromethyl)phenyl)sulfonyl)piperidin-4-yl)methoxy)-5-cyclopropyl-2-fluoro-N-(methylsulfonyl)benzamide], 16.3 nM.
The same measure, in the same setting: the figure for `CS(=O)(=O)NC(=O)c1cc(C2CC2)c(O[C@@H]2CCCN(CC3CCC4(CCC4)CC3)C2)cc1F` [Example 444, (R)-5-cyclopropyl-2-fluoro-N-(methylsulfonyl)-4-((11-(spiro[3.5]nonan-7-ylmethyl)piperidin-3-yl)oxy)benzamide, trifluoroacetic acid salt] is 4.5 nM.
As for `CS(=O)(=O)NC(=O)c1cc(C2CC2)c(OCC2CCN(S(=O)(=O)c3ccccc3C(F)(F)F)CC2)cc1F` [Example 370, 5-cyclopropyl-2-fluoro-N-(methylsulfonyl)-4-((1-((2-(trifluoromethyl)phenyl)sulfonyl)piperidin-4-yl)methoxy)benzamide], the IC50 turned out to be 30.8 nM.
Same read-out and setting: the figure for `COc1ccc(CN2CCC(COc3cc(F)c(C(=O)NS(C)(=O)=O)cc3C3CC3)CC2)cc1F` [Example 94, 5-Cyclopropyl-2-fluoro-4-((1-(3-fluoro-4-methoxybenzyl)piperidin-4-yl)methoxy)-N-(methylsulfonyl)benzamide] is 150 nM.
On to `CS(=O)(=O)NC(=O)c1cc(C2CC2)c(OCC2CN([C@@H](c3ccccc3)c3cc(Cl)cc(Cl)c3)C2)cc1F` [Example 142, (S)-5-Cyclopropyl-4-((1-((3,5-dichlorophenyl)(phenyl)methyl)azetidin-3-yl)methoxy)-2-fluoro-N-(methylsulfonyl)benzamide], for which the IC50 was 6.57 nM.
Regarding `CS(=O)(=O)NC(=O)c1cc(C2CC2)c(OCC2CCN(C(c3ccccc3Cl)c3ccccc3Cl)CC2)cc1F` [Example 361, 4-((1-(bis(2-chlorophenyl)methyl)piperidin-4-yl)methoxy)-5-cyclopropyl-2-fluoro-N-(methylsulfonyl)benzamide, trifluoroacetic acid salt], the IC50 is 2 nM.
Still for that read-out and setting: the figure for `C[Si](C)(C)CCS(=O)(=O)NC(=O)c1cc(C2CC2)c(OCC2CN(C(c3ccccc3)c3ccccc3)C2)cc1F` [Example 60, 4-((1-benzhydrylazetidin-3-yl)methoxy)-5-cyclopropyl-2-fluoro-N-((2-(trimethylsilyl)ethyl)sulfonyl)benzamide] is 1600 nM.
Consider `CS(=O)(=O)NC(=O)c1cc(C2CC2)c(OCC2CN(C(c3ccccc3)c3cccc(F)c3)C2)cc1F` (stereo not drawn) [Example 154, 5-Cyclopropyl-2-fluoro-4-((1-((3-fluorophenyl)(phenyl)methyl)azetidin-3-yl)methoxy)-N-(methylsulfonyl)benzamide], for which the IC50 came to 9.12 nM.
`CS(=O)(=O)NC(=O)c1cc(C2CC2)c(O[C@@H]2CCCN(Cc3cc(F)ccc3C(F)(F)F)C2)cc1F` [Example 318, (R)-5-cyclopropyl-2-fluoro-4-((1-(5-fluoro-2-(trifluoromethyl)benzyl)piperidin-3-yl)oxy)-N-(methylsulfonyl)benzamide]: the IC50 came to 2.6 nM.
For `O=C(NS(=O)(=O)C1CC1)c1cc(C2CC2)c(OCC2CCN(Cc3ccc(Br)cc3Cl)CC2)cc1F` [Example 414, 4-((1-(4-bromo-2-chlorobenzyl)piperidin-4-yl)methoxy)-5-cyclopropyl-N-(cyclopropylsulfonyl)-2-fluorobenzamide, trifluoroacetic acid salt], the IC50 stood at 3.8 nM.
Same read-out and setting: the figure for `CC(C)Oc1ncc([C@@H](c2ccccc2)N2CC(COc3cc(F)c(C(=O)NS(C)(=O)=O)cc3C3CC3)C2)cc1Cl` [Example 115, (R)-4-((1-((5-Chloro-6-isopropoxypyridin-3-yl)(phenyl)methyl)azetidin-3-yl)methoxy)-5-cyclopropyl-2-fluoro-N-(methylsulfonyl)benzamide] is 4.2 nM; for `CC(C)(C)c1ccc(CN2CCC[C@@H](Oc3cc(F)c(C(=O)NS(C)(=O)=O)cc3C3CC3)C2)cc1` [Example 425, (R)-4-((1-(4-(tert-butyl)benzyl)piperidin-3-yl)oxy)-5-cyclopropyl-2-fluoro-N-(methylsulfonyl)benzamide, trifluoroacetic acid salt] it is 2.9 nM; for `COc1ccc(CN2CCC[C@@H](Oc3cc(F)c(C(=O)NS(C)(=O)=O)cc3C3CC3)C2)cc1OC` [Example 430, (R)-5-cyclopropyl-4-((1-(3,4-dimethoxybenzyl)piperidin-3-yl)oxy)-2-fluoro-N-(methylsulfonyl)benzamide, trifluoroacetic acid salt] it is 533 nM.
In the case of `CS(=O)(=O)NC(=O)c1cc(C2CC2)c(OCC2CCN(Cc3cc(Cl)cc(C(F)(F)F)c3)CC2)cc1F` [Example 137, 4-((1-(3-Chloro-5-(trifluoromethyl)benzyl)piperidin-4-yl)methoxy)-5-cyclopropyl-2-fluoro-N-(methylsulfonyl)benzamide], the IC50 worked out at 2.05 nM.
With `CC(c1cc(Cl)cc(Cl)c1)N1CCN(Cc2cc(F)c(C(=O)NS(C)(=O)=O)cc2C2CC2)CC1` (stereo not drawn) [Example 540], the IC50 is 7.8 nM.
The same measure, in the same setting: as for `CC[C@H](c1cc(Cl)cc(Cl)c1)N1CCC(COc2cc(F)c(C(=O)NS(C)(=O)=O)cc2C2CC2)CC1` [Example 240, (R)-5-cyclopropyl-4-((1-(1-(3,5-dichlorophenyl)propyl)piperidin-4-yl)methoxy)-2-fluoro-N-(methylsulfonyl)benzamide], the figure is 2.4 nM; as for `C[C@H]1CC[C@@H](Oc2cc(F)c(C(=O)NS(C)(=O)=O)cc2C2CC2)CN1Cc1ccc(F)cc1Cl` [Example 324, 4-(((3R,6S)-1-(2-chloro-4-fluorobenzyl)-6-methylpiperidin-3-yl)oxy)-5-cyclopropyl-2-fluoro-N-(methylsulfonyl)benzamide], 2.7 nM; as for `O=C(NS(=O)(=O)C1CC1)c1cc(C2CC2)c(OCC2CCN(S(=O)(=O)c3cc(Cl)c(Br)cc3F)CC2)cc1F` [Example 367, 4-((1-((4-bromo-5-chloro-2-fluorophenyl)sulfonyl)piperidin-4-yl)methoxy)-5-cyclopropyl-N-(cyclopropylsulfonyl)-2-fluorobenzamide], 8.3 nM.
Same read-out and setting: as for `CS(=O)(=O)NC(=O)c1cc(C2CC2)c(OCC2CCN(Cc3ccc(Br)cc3Cl)CC2)cc1F` [Example 413, 4-((1-(4-bromo-2-chlorobenzyl)piperidin-4-yl)methoxy-5-cyclopropyl-2-fluoro-N-(methylsulfonyl)benzamide, trifluoroacetic acid salt], the figure is 6 nM; as for `COc1ccc(CN2CCC[C@@H](Oc3cc(F)c(C(=O)NS(C)(=O)=O)cc3C3CC3)C2)c(Cl)c1` [Example 432, (R)-4-((1-(2-chloro-4-methoxybenzyl)piperidin-3-yl)oxy)-5-cyclopropyl-2-fluoro-N-(methylsulfonyl)benzamide, trifluoroacetic acid salt], 3.3 nM; as for `C[C@@H]1CC[C@@H](COc2cc(F)c(C(=O)NS(C)(=O)=O)cc2C2CC2)CN1Cc1cc(Cl)cc(Cl)c1` [Example 341, 5-cyclopropyl-4-(((3R,6R)-1-(3,5-dichlorobenzyl)-6-methylpiperidin-3-yl)methoxy)-2-fluoro-N-(methylsulfonyl)benzamide, trifluoroacetic acid salt], 4.4 nM.
As to `Cc1ccc(CN2CCC[C@@H](Oc3cc(F)c(C(=O)NS(C)(=O)=O)cc3C3CC3)C2)cc1Cl` [Example 435, (R)-4-((1-(3-Chloro-4-methylbenzyl)piperidin-3-yl)oxy)-5-cyclopropyl-2-fluoro-N-(methylsulfonyl)benzamide, trifluoroacetic acid salt], the IC50 amounted to 5.4 nM.

For the origin of these results see patent US9546164B2 (GENENTECH, INC., priority 2013, dated 2017).
